US20230255906A1, “Targeting Serpin B9 in Cancer” (The Brigham and Women`s Hospital, Inc., priority 2020, published 2023)

Each compound was assayed on B16 melanoma cells (assay: Caspase-3 activity assay (EnzChek Caspase-3 Assay Kit), caspase-3 induction in tumor cells). Details: not given.
Assay type: cell-based, mouse
Outline: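 B16 melanoma cells exposed to compounds for 24 h, lysed on ice 30 min, and lysate incubated with Z-DEVD-R110 substrate about 30 min at room temperature. Fluorescence read at ~496/520 nm against untreated-cell and no-enzyme controls; caspase-3 induction serves as surrogate for GrB activity from Sb9 inhibition.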
Note: test concentration or dose not given here.

| SMILES | Ratio of caspase-3 activity to Formula (III) |
| --- | --- |
| O=C(c1ccc2oc(-c3cccc(F)c3)nc2c1)N1CCCCC1CO (stereo not shown) [(1-{[2-(3-fluorophenyl)-1,3-benzoxazol-5-yl]carbonyl}-2-piperidinyl)methanol] | 1.133 |
| O=C(c1ccc2oc(-c3ccc(C(F)(F)F)cc3)nc2c1)N1CC[C@H](O)C1 [(3S)-1-({2-[4-(trifluoromethyl)phenyl]-1,3-benzoxazol-5-yl}carbonyl)-3-pyrrolidinol] | 0.1382 |
| CCN1CCN(C(=O)c2ccc3nc(-c4cccc(OC)c4)oc3c2)[C@@H](C)C1=O [(3S)-1-ethyl-4-{[2-(3-methoxyphenyl)-1,3-benzoxazol-6-yl]carbonyl}-3-methyl-2-piperazinone] | 0.1434 |
| CCN(CC)C(=O)C1CCCN(C(=O)c2ccc3nc(-c4cccc(OC)c4)oc3c2)C1 (stereo not shown) [N,N-diethyl-1-{[2-(3-methoxyphenyl)-1,3-benzoxazol-6-yl]carbonyl}-3-piperidinecarboxamide] | 0.1463 |
| O=C(NC1C=CS(=O)(=O)C1)c1ccc2oc(-c3cccc(F)c3)nc2c1 (stereo not shown) [N-(1,1-dioxido-2,3-dihydro-3-thienyl)-2-(3-fluorophenyl)-1,3-benzoxazole-5-carboxamide] | 0.09701 |
| CN(CC(O)CO)C(=O)c1ccc2oc(-c3ccc(C(F)(F)F)cc3)nc2c1 (stereo not shown) [N-(2,3-dihydroxypropyl)-N-methyl-2-[4-(trifluoromethyl)phenyl]-1,3-benzoxazole-5-carboxamide] | 0.135 |
| O=C1CCC(NC(=O)c2ccc3nc(-c4ccccc4)oc3c2)C(=O)N1 (stereo not shown) [N-(2,6-dioxopiperidin-3-yl)-2-phenyl-1,3-benzoxazole-6-carboxamide] | 0.6989 |
| COc1cccc(-c2nc3ccc(C(=O)N(C)CC(O)c4ccccc4)cc3o2)c1 (stereo not shown) [N-(2-hydroxy-2-phenylethyl)-2-(3-methoxyphenyl)-N-methyl-1,3-benzoxazole-6-carboxamide] | 0.1589 |
| O=C(NCCO)c1ccc2oc(-c3ccc(C(F)(F)F)cc3)nc2c1 [N-(2-hydroxyethyl)-2-[4-(trifluoromethyl)phenyl]-1,3-benzoxazole-5-carboxamide] | 0.3843 |
| CC(C)N(CCO)C(=O)c1ccc2oc(-c3ccc(C(F)(F)F)cc3)nc2c1 [N-(2-hydroxyethyl)-N-isopropyl-2-[4-(trifluoromethyl)phenyl]-1,3-benzoxazole-5-carboxamide] | 0.1324 |
| CC(O)CNC(=O)c1ccc2oc(-c3ccc(C(F)(F)F)cc3)nc2c1 (stereo not shown) [N-(2-hydroxypropyl)-2-[4-(trifluoromethyl)phenyl]-1,3-benzoxazole-5-carboxamide] | 0.0922 |
| COc1cccc(-c2nc3ccc(C(=O)NCC(C)(C)CO)cc3o2)c1 [N-(3-hydroxy-2,2-dimethylpropyl)-2-(3-methoxyphenyl)-1,3-benzoxazole-6-carboxamide] | 0.6716 |
| O=C(NCCCO)c1ccc2oc(-c3ccc(C(F)(F)F)cc3)nc2c1 [N-(3-hydroxypropyl)-2-[4-(trifluoromethyl)phenyl]-1,3-benzoxazole-5-carboxamide] | 1.003 |
| CC1(C)CC(NC(=O)c2ccc3nc(-c4ccccc4)oc3c2)CO1 (stereo not shown) [N-(5,5-dimethyloxolan-3-yl)-2-phenyl-1,3-benzoxazole-6-carboxamide] | 0.09307 |
| COc1cccc(-c2nc3ccc(C(=O)N(CC4CC4)CC4CCCO4)cc3o2)c1 (stereo not shown) [N-(cyclopropylmethyl)-2-(3-methoxyphenyl)-N-(tetrahydro-2-furanylmethyl)-1,3-benzoxazole-6-carboxamide] | 0.1369 |
| Cc1cc(CNC(=O)c2ccc3oc(-c4cccc(F)c4)nc3c2)nn1C [N-[(1,5-dimethyl-1H-pyrazol-3-yl)methyl]-2-(3-fluorophenyl)-1,3-benzoxazole-5-carboxamide] | 0.123 |
| CCn1ccnc1CN(C)C(=O)c1ccc2nc(-c3cccc(OC)c3)oc2c1 [N-[(1-ethyl-1H-imidazol-2-yl)methyl]-2-(3-methoxyphenyl)-N-methyl-1,3-benzoxazole-6-carboxamide] | 1.071 |
| CCn1ccnc1CN(C)C(=O)c1ccc2oc(-c3ccc(C(F)(F)F)cc3)nc2c1 [N-[(1-ethyl-1H-imidazol-2-yl)methyl]-N-methyl-2-[4-(trifluoromethyl)phenyl]-1,3-benzoxazole-5-carboxamide] | 0.1566 |
| CCn1cc(CNC(=O)c2ccc3oc(-c4cccc(F)c4)nc3c2)cn1 [N-[(1-ethyl-1H-pyrazol-4-yl)methyl]-2-(3-fluorophenyl)-1,3-benzoxazole-5-carboxamide] | 1.163 |
| COc1cccc(-c2nc3ccc(C(=O)N(C)Cc4c(C)n[nH]c4C)cc3o2)c1 [N-[(3,5-dimethyl-1H-pyrazol-4-yl)methyl]-2-(3-methoxyphenyl)-N-methyl-1,3-benzoxazole-6-carboxamide] | 0.1324 |

Same assay, conditions: relative to compound of Formula (III)

| SMILES | Caspase-3 induction, Normalized to Formula (III) (%) |
| --- | --- |
| CN(C)c1nc2c(C(=O)N3CCCC3)cccc2o1 [N,N-dimethyl-4-(pyrrolidine-1-carbonyl)-1,3-benzoxazol-2-amine] | −22.9856 |
| CN(C)c1nc2cccc(C(=O)N3CCCC3)c2o1 [N,N-dimethyl-7-(pyrrolidine-1-carbonyl)-1,3-benzoxazol-2-amine] | −21.0312 |
| COCCCNC(=O)c1ccc2nc(C(F)(F)C(F)(F)F)oc2c1 [N-(3-methoxypropyl)-2-(1,1,2,2,2-pentafluoroethyl)-1,3-benzoxazole-6-carboxamide] | −23.2124 |
| COCCCNC(=O)c1ccc2nc(C3CCCO3)oc2c1 (stereo not shown) [N-(3-methoxypropyl)-2-(oxolan-2-yl)-1,3-benzoxazole-6-carboxamide] | −69.878 |
| COCCCNC(=O)c1cccc2oc(C)nc12 [N-(3-methoxypropyl)-2-methyl-1,3-benzoxazole-4-carboxamide] | −70.4086 |
| COCCCNC(=O)c1ccc2nc(S)oc2c1 [N-(3-methoxypropyl)-2-sulfanyl-1,3-benzoxazole-6-carboxamide] | 15.2459 |
| COc1cc(C(=O)NCC2CCCC2)ccc1OCCC(C)C [N-(cyclopentylmethyl)-3-methoxy-4-(3-methylbutoxy)benzamide] | −50.1028 |
| COc1cc(C(=O)NCCN(C)C)ccc1OCCC(C)C [N-[2-(dimethylamino)ethyl]-3-methoxy-4-(3-methylbutoxy)benzamide] | 6.8323 |
| CCOc1ccc(C(=O)NCCN(C)C)cc1O [N-[2-(dimethylamino)ethyl]-4-ethoxy-3-hydroxybenzamide] | −38.5237 |
| COc1cc(C(=O)NCCN(C)C)cc(OC)c1O [N-[2-(dimethylamino)ethyl]-4-hydroxy-3,5-dimethoxybenzamide] | −5.767 |
| CN(C)CCNC(=O)c1cc2c(cc1O)OCO2 [N-[2-(dimethylamino)ethyl]-6-hydroxy-2H-1,3-benzodioxole-5-carboxamide] | 2.3274 |
